We go through ten compounds from US7135492B2, “1,3-disubstituted-2- thioxo-imidazolidine-4,5-dione derivatives useful in the treatment of atherosclerosis” (Wyeth, priority 2001, dated 2006).

The test system of data set [1] is blood serum HDL cholesterol. The experiment in a line: Determination of serum HDL cholesterol in cholesterol/cholic acid-fed rats. Type of data set: in vivo. To be noted: Rattus norvegicus, feed or water, 192 h; male Sprague-Dawley rats, diet supplemented with 0.25% cholic acid and 1.0% cholesterol; 100 mg/kg mixed in diet; eight days; serum HDL-C by FPLC; read-out: HDL Cholesterol Level Increase (%). As to the method: The ability of the compounds of this invention to increase blood serum HDL levels was established by the following standard experimental procedure for determination of HDL cholesterol:
Male Sprague-Dawley rats weighing 200–225 g were housed two per cage and fed Purina Rodent Chow Special Mix 5001-S supplemented with 0.25% cholic acid and 1.0% cholesterol and water ad libitum for 8 days. Each test substance was administered to a group of six rats fed the same diet with the test diet mixed in as 0.005–0.1% of the total diet. Body weight and food consumption were recorded prior to diet administration and at termination. Typical doses of the test substances are 5–100 mg/kg/day.
At termination, blood was collected from anesthetized rats and the serum was separated by centrifugation. Total serum cholesterol was assayed using the Sigma Diagnostics enzymatic kit for the determination of cholesterol, Procedure No. 352, modified for use with ninety-six well microtiter plates. After reconstitution with water the reagent contained 300 U/I cholesterol oxidase, 100 U/I cholesterol esterase, 1000 U/I horseradish peroxidase, 0.3 mmoles/l 4-aminoantipyrine and 30.0 mmoles/l p-hydroxybenzenesulfonate in a pH 6.5 buffer. In the reaction, cholesterol was oxidized to produce hydrogen peroxide which is used to form a quinoneimine dye. The concentration of dye formed was measured spectrophotometrically by absorbance at 490 nm after incubation at 25° C. for 30 minutes. The concentration of cholesterol was determined for each serum sample relative to a commercial standard from Sigma.
HDL cholesterol concentrations in serum were determined by separation of lipoprotein classes by fast protein liquid chromatography (FPLC) by a modification of the method of Kieft et al., J. Lipid Res., 32 (1991) 859–866. 25 ul of serum was injected onto Superose 12 and Superose 6 (Pharmacia), in series, with a column buffer of 0.05 M Tris (2-amino-2-hydroxymethyl-1,3-propanediol) and 0.15 M sodium chloride at a flow rate of 0.5 ml/min. The eluted sample was mixed on line with Boehringer-Mannheim cholesterol reagent pumped at 0.2 ml/min. The combined eluents were mixed and incubated on line through a knitted coil (Applied Biosciences) maintained at a temperature of 45 C. The eluent was monitored by measuring absorbance at 490 nm and gave a continuous absorbance signal proportional to the cholesterol concentration. The relative concentration of each lipoprotein class was calculated as the percent of total absorbance. HDL cholesterol concentration, in serum, was calculated as the percent of total cholesterol as determined by FPLC multiplied by the total serum cholesterol concentration.
Test compounds were administered at a dose of 100 mg/kg. Each test substance is administered to a group of six rats. The duration of treatment was eight days.

In turn, `CCN1C(=O)C(=O)N(c2cc(F)ccc2C)C1=S` [Example 4, 1-Ethyl-3-(5-fluoro-2-methylphenyl)-2-thioxo-4,5-imidazolidinedione] showed a melting point of 152 to 153 °C. The change in vivo at 100 mg/kg in data set [1] stood at 203%.

`CCN1C(=O)C(=O)N(c2ccc(F)cc2)C1=S` [Example 7, 1-Ethyl-3-(4-fluorophenyl)-2-thioxo-4,5-imidazolidinedione] displayed a melting point of 172 to 174 °C. In addition, in data set [1], the change in vivo at 100 mg/kg was 199%.

For `Cc1ccc(Cl)cc1N1C(=O)C(=O)N(C)C1=S` [Example 5, 1-(5-Chloro-2-methylphenyl)-3-methyl-2-thioxo-4,5-imidazolidinedione], the melting point lay within 171 to 173 °C. The change in vivo at 100 mg/kg in data set [1] was found to be 186%.

`CCOC(=O)CON1C(=O)C(=O)N(c2ccccc2SC)C1=S` [Example 2, Ethyl 2-({3-[2-(methylsulfanyl)phenyl]-4,5-dioxo-2-thioxo-1-imidazolidinyl}oxy)acetate] registered a melting point of 112 to 114 °C. In addition, the change in vivo at 100 mg/kg in data set [1] is 196%.

`CCN1C(=O)C(=O)N(c2ccc(Cl)cc2C)C1=S` [Example 8, 1-(4-Chloro-2-methylphenyl)-3-ethyl-2-thioxo-4,5-imidazolidinedione] gave a melting point of 161 to 162 °C. Further, the change in vivo at 100 mg/kg in data set [1] stood at 103%.

Take `CCN1C(=O)C(=O)N(c2cc(Cl)ccc2C)C1=S` [Example 3, 1-(5-Chloro-2-methylphenyl)-3-ethyl-2-thioxo-4,5-imidazolidinedione]: the melting point was 173 to 174 °C. In data set [1], the change in vivo at 100 mg/kg was 19%.

In the case of `C#CCN1C(=O)C(=O)N(c2cc(Cl)ccc2C)C1=S` [Example 9, 1-(5-Chloro-2-methylphenyl)-3-(2-propynyl)-2-thioxo-4,5-imidazolidinedione], the melting point lay within 162 to 164 °C. The change in vivo at 100 mg/kg in data set [1] amounted to 114%.

`Cc1cccc(C)c1N1C(=O)C(=O)N(C)C1=S` [Example 6, 1-(2,6-Dimethylphenyl)-3-methyl-2-thioxo-4,5-imidazolidinedione] yielded a melting point of 144 to 146 °C. Besides, the change in vivo at 100 mg/kg in data set [1] came out at 227%.

Compound `CCN1C(=O)C(=O)N(c2c(C)cccc2C)C1=S` [Example 10, 1-(2,6-Dimethylphenyl)-3-ethyl-2-thioxo-4,5-imidazolidinedione] came in with a melting point of 103 to 105 °C. In addition, the change in vivo at 100 mg/kg in data set [1] turned out to be 36%.

In turn, `CCOC(=O)CON1C(=O)C(=O)N(c2cc(Cl)ccc2C)C1=S` [Example 1, Ethyl 2-{[3-(5-chloro-2-methylphenyl)-4,5-dioxo-2-thioxo-1-imidazolidinyl]oxy}acetate] showed a melting point of 157 to 159 °C. The change in vivo at 100 mg/kg in data set [1] was 242%.

By melting point is commonly meant the temperature of the solid-liquid transition.
